Results as given in patent US10758534B2 (Vertex Pharmaceuticals Incorporated, priority 2014, dated 2020).

Each compound was assayed against T1, F508del (Homo sapiens, UniProt P13569, DEL508-508) (assay: Protocol 2: FRET membrane potential optical assay (VIPR), identification of correction compounds). Conditions: F508del CFTR modulator activity; compounds of Table 1; read-out: EC30.
T1 construct: expressed in transfected cells
Assay type: cell-based
In short: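 NIH3T3 mouse fibroblasts stably expressing F508del-CFTR incubated with compound 16 h at 37 °C in serum-free medium, then loaded with CC2-DMPE/DiSBAC2(3) FRET dyes. Channel activated with 10 μM forskolin plus 20 μM genistein in Cl⁻-free (gluconate) bath; depolarisation from Cl⁻ efflux read on VIPR II.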

T1 sequence (P13569 with tags, fused parts or gaps DEL508-508): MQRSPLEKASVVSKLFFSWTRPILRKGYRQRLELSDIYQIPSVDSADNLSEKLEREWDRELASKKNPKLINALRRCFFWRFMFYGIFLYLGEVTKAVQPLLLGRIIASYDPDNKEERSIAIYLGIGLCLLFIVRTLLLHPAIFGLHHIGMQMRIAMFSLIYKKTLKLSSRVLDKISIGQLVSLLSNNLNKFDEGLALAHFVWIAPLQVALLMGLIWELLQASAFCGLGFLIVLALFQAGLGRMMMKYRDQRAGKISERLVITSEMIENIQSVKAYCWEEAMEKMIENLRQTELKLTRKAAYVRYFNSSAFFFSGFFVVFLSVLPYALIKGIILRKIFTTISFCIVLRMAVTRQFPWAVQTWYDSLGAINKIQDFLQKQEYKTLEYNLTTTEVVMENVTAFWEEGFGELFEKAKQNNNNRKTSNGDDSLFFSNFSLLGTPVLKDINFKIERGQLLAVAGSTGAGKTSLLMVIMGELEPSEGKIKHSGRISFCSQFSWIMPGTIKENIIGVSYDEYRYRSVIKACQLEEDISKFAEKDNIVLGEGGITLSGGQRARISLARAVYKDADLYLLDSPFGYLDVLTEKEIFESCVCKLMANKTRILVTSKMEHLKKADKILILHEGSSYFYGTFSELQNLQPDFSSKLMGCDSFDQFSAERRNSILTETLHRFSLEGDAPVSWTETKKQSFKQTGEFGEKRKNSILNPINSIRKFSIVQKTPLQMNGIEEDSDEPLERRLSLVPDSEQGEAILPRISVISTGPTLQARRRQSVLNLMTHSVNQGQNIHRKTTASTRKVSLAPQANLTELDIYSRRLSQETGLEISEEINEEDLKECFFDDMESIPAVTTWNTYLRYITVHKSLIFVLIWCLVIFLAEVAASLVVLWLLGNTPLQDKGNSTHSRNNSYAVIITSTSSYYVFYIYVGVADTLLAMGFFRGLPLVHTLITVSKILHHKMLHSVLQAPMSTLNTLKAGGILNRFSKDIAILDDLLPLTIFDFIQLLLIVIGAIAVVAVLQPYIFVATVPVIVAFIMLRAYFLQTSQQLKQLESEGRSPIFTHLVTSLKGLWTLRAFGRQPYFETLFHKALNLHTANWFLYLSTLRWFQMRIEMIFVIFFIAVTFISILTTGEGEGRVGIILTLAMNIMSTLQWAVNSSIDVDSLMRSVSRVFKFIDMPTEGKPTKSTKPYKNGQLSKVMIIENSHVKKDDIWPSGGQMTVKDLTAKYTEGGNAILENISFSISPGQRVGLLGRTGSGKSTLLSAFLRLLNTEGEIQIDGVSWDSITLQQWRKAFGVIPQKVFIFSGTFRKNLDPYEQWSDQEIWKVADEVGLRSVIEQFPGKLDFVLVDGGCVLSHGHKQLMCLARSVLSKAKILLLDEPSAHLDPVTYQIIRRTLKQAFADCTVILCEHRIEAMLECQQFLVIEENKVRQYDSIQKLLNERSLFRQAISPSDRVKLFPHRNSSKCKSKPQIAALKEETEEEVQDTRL

SMILES	EC30
Cc1cccc(-c2ccc(C(=O)NS(=O)(=O)c3ccc[nH]c3=O)c(N3C[C@@H](C)CC3(C)C)n2)c1O [Compound 2300, 6-(2-hydroxy-3-methyl-phenyl)-N-[(2-oxo-1H-pyridin-3-yl)sulfonyl]-2-[(4S)-2,2,4-trimethylpyrrolidin-1-yl]pyridine-3-carboxamide]	3000 to 10000 nM
CCOc1cc(C)cc(-c2ccc(C(=O)NS(=O)(=O)c3cc[nH]n3)c(Oc3c(C)cc(C)cc3C)n2)n1 [Compound 2301, 6-(6-ethoxy-4-methyl-2-pyridyl)-N-(1H-pyrazol-3-ylsulfonyl)-2-(2,4,6-trimethylphenoxy)pyridine-3-carboxamide]	< 3000 nM
COc1ccc(-c2ccc(C(=O)NS(=O)(=O)c3cccnc3N)c(N3C[C@@H](C)CC3(C)C)n2)c(F)c1F [Compound 2302, N-[(2-amino-3-pyridyl)sulfonyl]-6-(2,3-difluoro-4-methoxy-phenyl)-2-[(4S)-2,2,4-trimethylpyrrolidin-1-yl]pyridine-3-carboxamide]	< 3000 nM
CC(C)Cn1ccc(-c2cnc(N3CC(C)CC3(C)C)c(C(=O)NS(=O)(=O)c3cccc(N)n3)c2)n1 (centres unmarked) [Compound 2303, N-[(6-amino-2-pyridyl)sulfonyl]-5-(1-isobutylpyrazol-3-yl)-2-(2,2,4-trimethylpyrrolidin-1-yl)pyridine-3-carboxamide]	3000 to 10000 nM
Cc1cc(-c2ccc(C(=O)NS(=O)(=O)c3cccc(N)n3)c(N3C[C@@H](C)CC3(C)C)n2)cc(OC(C)C)n1 [Compound 2306, N-[(6-amino-2-pyridyl)sulfonyl]-6-(2-isopropoxy-6-methyl-4-pyridyl)-2-[(4S)-2,2,4-trimethylpyrrolidin-1-yl]pyridine-3-carboxamide]	< 3000 nM
CCCCN(C)c1cccc(S(=O)(=O)NC(=O)c2cccnc2N2CC(C)CC2(C)C)n1 (centres unmarked) [Compound 2307, N—[[6-[butyl(methyl)amino]-2-pyridyl]sulfonyl]-2-(2,2,4-trimethylpyrrolidin-1-yl)pyridine-3-carboxamide]	< 3000 nM
COc1cccc(OC)c1Oc1cccc(S(=O)(=O)NC(=O)c2cccnc2N2CC(C)CC2(C)C)n1 (centres unmarked) [Compound 2309, N—[[6-(2,6-dimethoxyphenoxy)-2-pyridyl]sulfonyl]-2-(2,2,4-trimethylpyrrolidin-1-yl)pyridine-3-carboxamide]	< 3000 nM
C[C@@H]1CN(c2nc(C3CCCOC3)ccc2C(=O)NS(=O)(=O)c2cccnc2N)C(C)(C)C1 (stereo partly drawn) [Compound 2311, N-[(2-amino-3-pyridyl)sulfonyl]-6-tetrahydropyran-3-yl-2-[(4S)-2,2,4-trimethylpyrrolidin-1-yl]pyridine-3-carboxamide]	< 3000 nM
CC1CN(c2ncc(-c3ccccc3Cl)cc2C(=O)NS(=O)(=O)c2cccc(N)n2)C(C)(C)C1 (centres unmarked) [Compound 2312, N-[(6-amino-2-pyridyl)sulfonyl]-5-(2-chlorophenyl)-2-(2,2,4-trimethylpyrrolidin-1-yl)pyridine-3-carboxamide]	< 3000 nM
Cc1cc(OC2CCCC2)cc(-c2cnc(N3CC(C)CC3(C)C)c(C(=O)NS(=O)(=O)c3cccc(N)n3)c2)c1 (centres unmarked) [Compound 2313, N-[(6-amino-2-pyridyl)sulfonyl]-5-[3-(cyclopentoxy)-5-methyl-phenyl]-2-(2,2,4-trimethylpyrrolidin-1-yl)pyridine-3-carboxamide]	< 3000 nM
C[C@@H]1CN(c2nc([C@H]3CC[C@@H](C(F)(F)F)CC3)ccc2C(=O)NS(=O)(=O)c2ccc[nH]c2=O)C(C)(C)C1 [Compound 2315, N-[(2-oxo-1H-pyridin-3-yl)sulfonyl]-6-[4-(trifluoromethyl)cyclohexyl]-2-[(4S)-2,2,4-trimethylpyrrolidin-1-yl]pyridine-3-carboxamide]	< 3000 nM
CC1CN(c2ncccc2C(=O)NS(=O)(=O)c2cccc(OC3CC=CC3)n2)C(C)(C)C1 (centres unmarked) [Compound 2317, N-[(6-cyclopent-3-en-1-yloxy-2-pyridyl)sulfonyl]-2-(2,2,4-trimethylpyrrolidin-1-yl)pyridine-3-carboxamide]	< 3000 nM
C[C@@H]1CN(c2nc(-c3ccc(N(C)C)nc3)ccc2C(=O)NS(=O)(=O)c2cccnc2N)C(C)(C)C1 [Compound 2319, N-[(2-amino-3-pyridyl)sulfonyl]-6-[6-(dimethylamino)-3-pyridyl]-2-[(4S)-2,2,4-trimethylpyrrolidin-1-yl]pyridine-3-carboxamide]	3000 to 10000 nM
CC1CN(c2ncccc2C(=O)NS(=O)(=O)c2cccc(N3Cc4ccccc4C[C@H]3C(=O)O)n2)C(C)(C)C1 (stereo partly drawn) [Compound 2321, (3S)-2-[6-[[2-(2,2,4-trimethylpyrrolidin-1-yl)pyridine-3-carbonyl]sulfamoyl]-2-pyridyl]-3,4-dihydro-1H-isoquinoline-3-carboxylic acid]	3000 to 10000 nM
Cc1cc(-c2cnc(N3CC(C)CC3(C)C)c(C(=O)NS(=O)(=O)c3cccc(N)n3)c2)cc(C(C)(C)C)c1 (centres unmarked) [Compound 2322, N-[(6-amino-2-pyridyl)sulfonyl]-5-(3-tert-butyl-5-methyl-phenyl)-2-(2,2,4-trimethylpyrrolidin-1-yl)pyridine-3-carboxamide]	< 3000 nM

Continued, values first:

EC30	SMILES
< 3000 nM	CC1CN(c2ncc(-c3ccc(C#N)cc3)cc2C(=O)NS(=O)(=O)c2cccc(N)n2)C(C)(C)C1 (centres unmarked) [Compound 2304, N-[(6-amino-2-pyridyl)sulfonyl]-5-(4-cyanophenyl)-2-(2,2,4-trimethylpyrrolidin-1-yl)pyridine-3-carboxamide]
< 3000 nM	CCC(CC)CNc1cccc(S(=O)(=O)NC(=O)c2cccnc2N2CC(C)CC2(C)C)n1 (centres unmarked) [Compound 2305, N—[[6-(2-ethylbutylamino)-2-pyridyl]sulfonyl]-2-(2,2,4-trimethylpyrrolidin-1-yl)pyridine-3-carboxamide]
< 3000 nM	CC1CN(c2ncccc2C(=O)NS(=O)(=O)c2cccc(OCc3ccco3)n2)C(C)(C)C1 (centres unmarked) [Compound 2308, N—[[6-(2-furylmethoxy)-2-pyridyl]sulfonyl]-2-(2,2,4-trimethylpyrrolidin-1-yl)pyridine-3-carboxamide]
< 3000 nM	COc1ccccc1CNc1cccc(S(=O)(=O)NC(=O)c2cccnc2N2CC(C)CC2(C)C)n1 (centres unmarked) [Compound 2310, N—[[6-[(2-methoxyphenyl)methylamino]-2-pyridyl]sulfonyl]-2-(2,2,4-trimethylpyrrolidin-1-yl)pyridine-3-carboxamide]
3000 to 10000 nM	CC1CN(c2ncccc2C(=O)NS(=O)(=O)c2cccc(Oc3ccc(N)cc3)n2)C(C)(C)C1 (centres unmarked) [Compound 2314, N—[[6-(4-aminophenoxy)-2-pyridyl]sulfonyl]-2-(2,2,4-trimethylpyrrolidin-1-yl)pyridine-3-carboxamide]
< 3000 nM	CC1CN(c2ncccc2C(=O)NS(=O)(=O)c2cccc(Nc3ccc(F)c(C#N)c3)n2)C(C)(C)C1 (centres unmarked) [Compound 2316, N—[[6-(3-cyano-4-fluoro-anilino)-2-pyridyl]sulfonyl]-2-(2,2,4-trimethylpyrrolidin-1-yl)pyridine-3-carboxamide]
< 3000 nM	CC1CN(c2ncccc2C(=O)NS(=O)(=O)c2cccc(N[C@H](C)C(C)C)n2)C(C)(C)C1 (stereo partly drawn) [Compound 2318, N—[[6-[[(1R)-1,2-dimethylpropyl]amino]-2-pyridyl]sulfonyl]-2-(2,2,4-trimethylpyrrolidin-1-yl)pyridine-3-carboxamide]
< 3000 nM	Cc1cccc(Oc2cccc(S(=O)(=O)NC(=O)c3cccnc3N3CC(C)CC3(C)C)n2)c1 (centres unmarked) [Compound 2320, N—[[6-(3-methylphenoxy)-2-pyridyl]sulfonyl]-2-(2,2,4-trimethylpyrrolidin-1-yl)pyridine-3-carboxamide]
